In PubChem BioAssay (NCI):
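Five concentrations, 48 hours, 96-well plates. TGI marks complete inhibition of growth.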

Experiments:
Experiment in all cases: NCI-60 cell line screen, 48 h
HOP-92 NSCLC = system: HOP-92 NSCLC
RPMI-8226 leukemia = system: RPMI-8226 leukemia
HT29 colon = system: HT29 colon
SNB-19 CNS = system: SNB-19 CNS
SW-620 colon = system: SW-620 colon
NCI-H460 lung = system: NCI-H460 lung
UO-31 renal = system: UO-31 renal
SK-MEL-2 melanoma = system: SK-MEL-2 melanoma
HCT-15 colon = system: HCT-15 colon
MCF7 breast = system: MCF7 breast
U251 CNS = system: U251 CNS
OVCAR-3 ovarian = system: OVCAR-3 ovarian
TK-10 renal = system: TK-10 renal
HCT-116 colon = system: HCT-116 colon
MOLT-4 leukemia = system: MOLT-4 leukemia
CCRF-CEM leukemia = system: CCRF-CEM leukemia
HS 578T breast = system: HS 578T breast
RXF 393 renal = system: RXF 393 renal
IGROV1 ovarian = system: IGROV1 ovarian
NCI-H522 lung = system: NCI-H522 lung

Row | SMILES | TGI (HOP-92 NSCLC) [µM] | TGI (RPMI-8226 leukemia) [µM] | TGI (HT29 colon) [µM] | TGI (SNB-19 CNS) [µM] | TGI (SW-620 colon) [µM] | TGI (NCI-H460 lung) [µM] | TGI (UO-31 renal) [µM] | TGI (SK-MEL-2 melanoma) [µM] | TGI (HCT-15 colon) [µM] | TGI (MCF7 breast) [µM] | TGI (U251 CNS) [µM] | TGI (OVCAR-3 ovarian) [µM] | TGI (TK-10 renal) [µM] | TGI (HCT-116 colon) [µM] | TGI (MOLT-4 leukemia) [µM] | TGI (CCRF-CEM leukemia) [µM] | TGI (HS 578T breast) [µM] | TGI (RXF 393 renal) [µM] | TGI (IGROV1 ovarian) [µM] | TGI (NCI-H522 lung) [µM]
1 | COc1c(N2CCCCC2)c2c(=O)c3ccccc3oc2c2cc(C)oc12 | 55.6 | 50.3 | 38.6 | > 100 | > 100 | > 100 | 54 | 61.6 | > 100 | > 100 | > 100 | > 100 | > 100 | 22.6 | > 100 | > 100 | 79.6 | 70 |  | 
2 | Cc1cc(C)c(-n2c(C)c(C)c(C#N)c2N)c(C)c1 | 74.4 | 54.6 | > 100 | > 100 | > 100 | 78.6 | > 100 | 51.7 | > 100 |  | 49.7 | > 100 | > 100 | 48.9 | 68.5 | 45.5 | > 100 | 94.8 | > 100 | 57.4
3 | O=C(CC(C(=O)c1cccs1)c1ccsc1)c1ccc(Cl)cc1 (stereo not given) |  | > 100 | > 100 | > 100 | > 100 | > 100 | > 100 | > 100 | > 100 | > 100 | > 100 |  | > 100 | > 100 | > 100 | > 100 | > 100 |  | > 100 | 
4 | CC1OC1P(=O)(O)O (stereo not given) | > 100 | > 100 | > 100 | > 100 | > 100 | > 100 | > 100 | > 100 | > 100 | > 100 | > 100 | > 100 | > 100 | > 100 | > 100 | > 100 | > 100 | > 100 | > 100 | 
5 | CN(C)CCNC(=O)c1ccccc1Nc1c(Cl)cccc1Cl |  | 29.1 | 20 | 29.9 | 30.2 |  | 17.2 |  | 27.9 |  | 23.9 |  | 20.7 | 20.6 | 29.2 | 30.4 |  | 10.8 | 36.3 | 
6 | COc1ccc2c(c1)CC[C@@H]1C2CC[C@]2(C)C(=N\O)/C(=N/O)CC12 (stereo not given in full) | 30.6 | 35.2 | 5.14 | 32.9 | 40.2 | 12.5 | 26.5 | 26.9 | 26.2 |  | 28.7 | 26.8 | 41.2 | 29.5 | 21.1 | 29.9 |  |  | 10 | 11.5
7 | O=S(=O)(Nc1nc2ccccc2nc1Nc1cccc2ccccc12)c1ccccc1 | 16.5 | > 100 |  | 61.2 | > 100 | > 100 | > 100 | > 100 |  | > 100 | 30 | > 100 | 28.9 | > 100 |  |  | 95.2 | 78.9 | > 100 | 
8 | COc1cc(C(=O)O)cc2c1[nH]c1ccccc12 | > 25 | > 25 | > 25 | > 25 | > 25 | > 25 | > 25 | > 25 | > 25 |  | > 25 | > 25 | > 25 | > 25 | > 25 | > 25 |  |  | > 25 | > 25
9 | COc1ccc2c(c1)OCC1=C2Oc2ccccc2C1 |  | > 100 | 90 |  | > 100 |  | > 100 | 77.5 | > 100 |  | > 100 | > 100 | > 100 | > 100 | 85.5 |  |  |  | > 100 | 70.2
10 | O=C(O)COc1cc(-c2ccccc2F)nc2cc3c(cc12)OCO3 | > 100 | > 100 | > 100 |  | > 100 |  |  | > 100 | > 100 | > 100 | > 100 | > 100 | > 100 | > 100 | > 100 | > 100 |  | > 100 | > 100 | 
11 | Nc1cc(N2CCOCC2)nc(=O)n1-c1ccccc1 | > 100 | > 100 | > 100 | > 100 | > 100 | > 100 | > 100 | > 100 | > 100 | > 100 | > 100 | > 100 |  | > 100 | > 100 | > 100 |  |  | > 100 | 
12 | S=C(Nc1ccc(Cl)cc1)c1ccc(CN2CCCCC2)s1 |  | 20.2 | 19.5 |  | > 100 | 21.9 | 31.9 | > 100 | > 100 | 61.9 | > 100 | > 100 |  | 25.5 | 30.5 | 12.5 | > 100 |  | 8.82 | 75
13 | CSC1=C(C(=O)N(COCC[Si](C)(C)C)c2ccccc2Br)CCC(C(C)(C)C)C1 (stereo not given) | 45.8 | > 100 | 64.4 | 42.9 | 41 | 44.1 | 27 | 31.7 | 26.1 | 28 | 24 | 24.4 | > 100 | 18.3 | 21.9 | > 100 |  | 23.1 | > 100 | 24.6
14 | O=C1CSC(c2c[nH]c3ccccc23)N1c1cccc([N+](=O)[O-])c1 (stereo not given) | > 100 | > 100 | > 100 | > 100 | > 100 | > 100 | > 100 |  | > 100 | > 100 | > 100 | > 100 | > 100 | > 100 | > 100 | > 100 |  | > 100 | > 100 | > 100
15 | c1ccc(C2(c3ccccc3)S/C(=C3/SC(c4ccccc4)(c4ccccc4)c4ccccc43)c3ccccc32)cc1 | > 100 |  | > 100 | > 100 | > 100 | > 100 | > 100 | > 100 | > 100 |  | > 100 | > 100 | > 100 | > 100 | > 100 | > 100 | > 100 | > 100 | > 100 | > 100
16 | [N-]=[N+]=CC(=O)OC1CCc2ccccc21 (stereo not given) | > 100 | > 100 | > 100 | > 100 | > 100 | > 100 | 29 | > 100 | > 100 | > 100 | > 100 | > 100 | > 100 | > 100 |  |  |  | > 100 | > 100 | > 100
17 | COc1ccc(OC)c2sc(N3C(=O)/C(=C/c4ccc(SC)cc4)N=C3c3ccccc3)nc12 | > 100 | 63.3 | 53.3 | 68.5 | > 100 | > 100 | 63.7 | 42.7 | > 100 | 48.1 | 32.3 | 53.6 | > 100 | 41.3 | 80.5 | 22.2 | 60.8 |  | > 100 | 
18 | COc1cccc([C@@H]2C/C(=N\NC(=O)C(=O)N[C@@H](C)c3ccccc3)c3cc4c(cc3N2)OCO4)c1 | > 100 | > 100 |  | > 100 | > 100 |  | > 100 | > 100 | > 100 | > 100 | > 100 | > 100 | > 100 | > 100 | > 100 | > 100 | > 100 | > 100 |  | 
19 | CC[C@]1(Cc2ccc(OC)c(OC)c2)C=[N+]([O-])O[C@H](OC2CCCCC2c2ccccc2)[C@@H]1OC(C)=O (stereo not given in full) | > 100 | 69.7 | > 100 | > 100 | > 100 | > 100 | > 100 | > 100 | > 100 | > 100 | > 100 | > 100 | > 100 | > 100 | 63 | 68.3 |  | 94.1 | > 100 | > 100
20 | Nc1nc(N)c2c(CCc3ccc(C(=O)N[C@@H](CCC(=O)O)C(=O)O)cc3)ccnc2n1 | > 100 | > 100 | > 100 | > 100 | > 100 | > 100 | > 100 | > 100 | > 100 |  | > 100 | > 100 | > 100 | > 100 | > 100 | > 100 | > 100 | > 100 | > 100 | > 100
21 | Nc1c(C(=O)c2ccc(Cl)cc2)[nH]c(Nc2ccc(Cl)cc2)c1C(=S)Nc1ccccc1 | 22.2 | 56.3 | 18 | 21.8 | 51.9 | 20.8 | 15.1 | 25.8 | 16.9 | 21.6 | 9.73 | 12.9 | 16.5 | 13.4 | 42.6 | > 100 |  | 7.45 | 17.3 | 20.3
22 | CC(C)NC1CCCCC2c3cc(F)ccc3[C@]12O (stereo not given in full) |  | > 100 | > 100 | > 100 | > 100 | > 100 | > 100 | > 100 | > 100 |  | > 100 | > 100 | > 100 | > 100 | > 100 | > 100 |  | > 100 | > 100 | > 100
23 | O=C1OCCC12CN(Cc1ccccc1)N=N2 (stereo not given) | > 100 | > 100 | > 100 | > 100 | > 100 | > 100 | > 100 | > 100 | > 100 | > 100 | > 100 | > 100 | > 100 | > 100 | > 100 |  |  | > 100 |  | > 100
24 | Clc1ccc(/C=c2\nc(-c3ccccc3)n3c2nc2ccccc23)cc1 | > 100 | > 100 | > 100 | > 100 | > 100 | > 100 | > 100 | > 100 | > 100 | > 100 | > 100 | > 100 | > 100 | > 100 | > 100 | > 100 | > 100 | > 100 | > 100 | 
25 | Cc1ccc(N/C(=C(/C(Cl)=C(Cl)Cl)[N+](=O)[O-])n2nnc3ccccc32)cc1 |  | 64.8 | 42 | 33.9 | 43.5 | 34.4 | 30.2 | 35.5 | 52.3 | > 100 |  | 34.3 |  | 75.5 | > 100 | 64.5 | 47.1 |  |  | 
26 | Cc1ccc([N+]2=NC(c3ccc([N+](=O)[O-])cc3)=NN(c3ccccc3)C2)cc1 |  | > 100 | > 100 | > 100 | > 100 | > 100 | > 100 |  | > 100 |  | > 100 | > 100 | > 100 | > 100 | > 100 | > 100 |  | > 100 | > 100 | 39
